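48-hour exposure; five concentrations; linearly interpolated endpoints. At the GI50, growth is halved.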 Active and inactive are the calls of the source. Cut-off read from the data, not from the text of the source: active = GI50 up to about 1.1 µM and inactive = higher.
How the values were obtained:
Assay in all cases: inhibition of tumour cell growth, NCI panel, 48 h
ACHN = system: ACHN
SF-539 = system: SF-539
HCC 2998 = system: HCC 2998
IGROV-1 = system: IGROV-1
SF-295 = system: SF-295
PC-3 = system: PC-3
BT-549 = system: BT-549
SNB-19 = system: SNB-19
NCI-H23 = system: NCI-H23
MDA-MB-435 = system: MDA-MB-435
HCT-116 = system: HCT-116
K562 = system: K562
MOLT-4 = system: MOLT-4
LOX IMVI = system: LOX IMVI
M14 = system: M14
SK-MEL-5 = system: SK-MEL-5
NCI-H522 = system: NCI-H522
MCF7 = system: MCF7
SNB-75 = system: SNB-75
OVCAR-5 = system: OVCAR-5
HCT-15 = system: HCT-15
OVCAR-3 = system: OVCAR-3
SK-MEL-28 = system: SK-MEL-28
UACC-62 = system: UACC-62
TK-10 = system: TK-10
786-0 = system: 786-0
Malme-3M = system: Malme-3M
COLO 205 = system: COLO 205
MDA-N = system: MDA-N
T47D = system: T47D
NCI/ADR-RES = system: NCI/ADR-RES
HT-29 = system: HT-29
CAKI-1 = system: CAKI-1
RPMI-8226 = system: RPMI-8226
A549 = system: A549
KM12 = system: KM12
SK-MEL-2 = system: SK-MEL-2
RXF 393 = system: RXF 393
UACC-257 = system: UACC-257
HOP-92 = system: HOP-92
SK-OV-3 = system: SK-OV-3
SN12C = system: SN12C
CCRF-CEM = system: CCRF-CEM
NCI-H226 = system: NCI-H226
DU-145 = system: DU-145
U-251 = system: U-251
NCI-H460 = system: NCI-H460
MDA-MB-231 = system: MDA-MB-231
EKVX = system: EKVX
HOP-62 = system: HOP-62
OVCAR-8 = system: OVCAR-8
SW-620 = system: SW-620
OVCAR-4 = system: OVCAR-4
UO-31 = system: UO-31

Measured: GI50

CCn1cnc2c(NC(C)=O)ncnc21
inactive: ACHN > 100 µM | SF-539 > 100 µM | HCC 2998 > 100 µM | IGROV-1 > 100 µM | SF-295 > 100 µM | PC-3 > 100 µM | BT-549 > 100 µM | SNB-19 > 100 µM | NCI-H23 > 100 µM | MDA-MB-435 > 100 µM | HCT-116 > 100 µM | K562 > 100 µM | MOLT-4 > 100 µM | LOX IMVI > 100 µM | M14 > 100 µM | SK-MEL-5 > 100 µM | NCI-H522 > 100 µM | MCF7 > 100 µM | SNB-75 1.33 µM | OVCAR-5 > 100 µM | OVCAR-3 > 100 µM | SK-MEL-28 > 100 µM | UACC-62 > 100 µM | TK-10 > 100 µM | 786-0 > 100 µM | Malme-3M > 100 µM | COLO 205 > 100 µM | MDA-N > 100 µM | T47D > 100 µM | NCI/ADR-RES > 100 µM | HT-29 > 100 µM | CAKI-1 > 100 µM | RPMI-8226 > 100 µM | A549 > 100 µM | KM12 > 100 µM | SK-MEL-2 > 100 µM | RXF 393 > 100 µM | UACC-257 > 100 µM | HOP-92 > 100 µM | SK-OV-3 > 100 µM | SN12C > 100 µM | CCRF-CEM > 100 µM | NCI-H226 > 100 µM | DU-145 > 100 µM | U-251 > 100 µM | NCI-H460 > 100 µM | MDA-MB-231 > 100 µM | EKVX > 100 µM | HOP-62 > 100 µM | OVCAR-8 > 100 µM | SW-620 > 100 µM | OVCAR-4 > 100 µM | UO-31 > 100 µM
> 100 µM: HCT-15
